The values below come from patent US11845752B2, “Substituted imidazo[1,5-a]pyrazines for the treatment of hepatitis B” (ALIGOS THERAPEUTICS, INC., priority 2020, dated 2023).

Like-named read-outs stand apart in the source and are kept apart here. Some results are limits rather than exact numbers.

The assay deals with HBV. Description: HBV-DNA antiviral assay using HepG2.117 cells (intracellular HBV DNA by qPCR). It counts as cell-based, HBV genotype D. The conditions noted are these: HBV DNA inhibition, 3 days incubation, read-out: EC50. As for the experimental part:
The following assay procedure describes the HBV antiviral assay, using HepG2.117 cells, which carry a stably integrated genotype D HBV genome under the control of a Tet-off promoter, and intracellular HBV DNA quantification as endpoint. Cell viability is assessed in parallel by measuring the intracellular ATP content using ATPlite (Perkin Elmer).
On day 0, HepG2.117 cells (which are maintained in routine cell culture with doxycycline present in the medium at a final concentration of 1 μg/mL) were seeded in 96-well plates (white with clear bottom) at a density of 2.0×10^4 cells/well (0.1 mL/well) in medium without doxycycline to induce pgRNA transcription and subsequent formation of HBV particles. The cells were incubated at 37° C. and 5% CO2.
On day 1, medium was removed from each well, the test articles were diluted in culture medium without doxcycyline and 100 μL was added to cell culture wells (9 concentrations, 4-fold dilution). For each plate, 6 untreated (merely DMSO) wells were included. The final concentration of DMSO in the culture medium was 2%. Each plate was prepared in duplicate (one for HBV DNA extraction, one for ATPlite measurement). The cells were incubated at 37° C. and 5% CO2 for 3 days.
On day 4, cell viability was assessed using ATPlite and cell lysates were prepared for HBV DNA extraction and subsequent quantification by qPCR.
Medium was removed from each well and 100 μL of 0.33% NP-40 in H2O was added to each well. Plates were sealed, incubated at 4° C. for 5 mins, vortexed extensively and centrifuged briefly. Next, 35 μL of lysate was added to 65 μL QuickExtract DNA Extraction Solution (Epicentre) in a PCR plate for each well. PCR plate was incubated at 65° C. for 6 mins, 98° C. for 2 mins and finally cooled to 4° C. HBV DNA was then quantified by qPCR with HBV-specific primers and probes as specified in Table 1 using the Bio-Rad SSOAdvanced Universal Probes Supermix on a CFX96 machine (Bio-Rad). The PCR cycle program consisted of 95° C. for 3 mins, followed by 40 cycles at 95° C. for 10 sec and 60° C. for 30 sec.
A DNA standard was prepared by dilution of an IDT gBlock corresponding to the amplicon with concentrations ranging from 10^2 to 10^8 copies/input (i.e. per 4 μL) and used to generate a standard curve by plotting Cq values vs. HBV DNA standard concentration. The quantity of HBV DNA in each sample was determined by interpolating from the standard curve.
Cell viability was calculated as follows: % Cell viability=(luminescence value of test sample)/(average luminescence value of 2% DMSO control)×100%. HBV DNA inhibition was calculated as follows: 100−(HBV DNA copy number of test sample)/(average HBV DNA copy number of 2% DMSO control)×100%. No normalization to entecavir was required due to the excellent dynamic window of this assay. The CC50, EC50 and EC90 values were determined by dose-response curves fitted using non-linear regression.

Setting [1] is: Hepatitis B virus, HepG2.117, 72 h.

The term EC50 denotes the concentration needed to bring the measured effect to its halfway point.

Turning to `CC1Cn2c(c(C(=O)NCc3ccccc3-c3cn(C)cn3)n(-c3ccc(OC4CC4)cc3)c2=O)CN1C(=O)c1ccc(Br)c(Cl)c1` (single isomer, unassigned) [Compound 18b, 7-(4-bromo-3-chloro-benzoyl)-2-[4-(cyclopropoxy)phenyl]-6-methyl-N-[[2-(1-methylimidazol-4-yl)phenyl]methyl]-3-oxo-6,8-dihydro-5H-imidazo[1,5-a]pyrazine-1-carboxamide], the EC50 is below 50 nM. Consider `O=C(NCc1ccccc1)c1c2n(c(=O)n1-c1ccc3c(ccn3CCO)c1)CCN(C(=O)c1ccc(Br)c(Cl)c1)C2` [Compound 128, N-benzyl-7-(4-bromo-3-chloro-benzoyl)-2-[1-(2-hydroxyethyl)indol-5-yl]-3-oxo-6,8-dihydro-5H-imidazo[1,5-a]pyrazine-1-carboxamide], for which the concentration for a half-maximal effect (EC50) under setting [1] was in the range of 50 to 500 nM. On to `C[C@@H]1Cn2c(c(C(=O)NCc3ccccc3-c3ncccn3)n(-c3ccc4nn(C[C@H](O)C(F)(F)F)cc4c3)c2=O)CN1C(=O)c1ccc(Br)c(C(F)(F)F)c1` (mixture of isomers) [Compound 107a, (6RS)-7-[4-bromo-3-(trifluoromethyl)benzoyl]-6-methyl-3-oxo-N-[(2-pyrimidin-2-ylphenyl)methyl]-2-[2-[(2S)-3,3,3-trifluoro-2-hydroxy-propyl]indazol-5-yl]-6,8-dihydro-5H-imidazo[1,5-a]pyrazine-1-carboxamide], for which, under setting [1], the EC50 was in the range of 50 to 500 nM. Regarding `CNc1ccnc(-c2ccccc2CNC(=O)c2c3n(c(=O)n2-c2ccc(OC4CC4)cc2)CC(C)N(C(=O)c2ccc(Br)c(C(F)(F)F)c2)C3)n1` (racemic) [Compound 28a, rac-(6R)-7-[4-bromo-3-(trifluoromethyl)benzoyl]-2-[4-(cyclopropoxy)phenyl]-6-methyl-N-[[2-[4-(methylamino)pyrimidin-2-yl]phenyl]methyl]-3-oxo-6,8-dihydro-5H-imidazo[1,5-a]pyrazine-1-carboxamide], the EC50 under setting [1] was below 50 nM. With `CC1Cn2c(c(C(=O)NCc3ccccc3-c3ccncn3)n(-c3ccc(OC4CC4)cc3)c2=O)CN1C(=O)c1ccc(Br)c(C(F)(F)F)c1` (single isomer, unassigned) [Compound 13a, 7-[4-bromo-3-(trifluoromethyl)benzoyl]-2-[4-(cyclopropoxy)phenyl]-6-methyl-3-oxo-N-[(2-pyrimidin-4-ylphenyl)methyl]-6,8-dihydro-5H-imidazo[1,5-a]pyrazine-1-carboxamide], the EC50 under setting [1] lay within 50 to 500 nM. For the compound `CC1Cn2c(c(C(=O)NCc3ccccc3-c3cc(N)ncn3)n(-c3ccc(OC4CC4)cc3)c2=O)CN1C(=O)c1ccc(Br)c(Cl)c1` (single isomer, unassigned) [Compound 8a, N-[[2-(6-aminopyrimidin-4-yl)phenyl]methyl]-7-(4-bromo-3-chloro-benzoyl)-2-[4-(cyclopropoxy)phenyl]-6-methyl-3-oxo-6,8-dihydro-5H-imidazo[1,5-a]pyrazine-1-carboxamide], the 50% effective concentration (EC50) under setting [1] is 50 to 500 nM. Take `CC1(O)CCN(c2ccc(-n3c(C(=O)NCc4ccccc4)c4n(c3=O)CCN(C(=O)c3ccc(Br)c(Cl)c3)C4)cc2)C1` (single isomer, unassigned) [Compound 115a]: the EC50 under setting [1] fell in the range of 50 to 500 nM.

Consider `CC1Cn2c(c(C(=O)NCc3c(F)cccc3Cl)n(-c3ccc(N4CC5(CN(C)C5)C4)cc3)c2=O)CN1C(=O)c1ccc(Br)c(C(F)(F)F)c1` (single isomer, unassigned) [Compound 106a], for which the concentration for a half-maximal effect (EC50) under setting [1] was 50 to 500 nM. With `CC1Cn2c(c(C(=O)NCc3ccccc3-c3ncccn3)n(-c3ccc(OCC4(O)CC4)cc3)c2=O)CN1C(=O)c1ccc(Br)c(C(F)(F)F)c1` (single isomer, unassigned) [Compound 81b], the EC50 is below 50 nM. Same read-out and setting: the figure for `CC1Cn2c(c(C(=O)NCc3ccccc3-c3ccncn3)n(-c3ccc(N4CCC5(CN(C)C5)C4)cc3)c2=O)CN1C(=O)c1ccc(Br)c(C(F)(F)F)c1` (single isomer, unassigned) [Compound 88b] is 50 to 500 nM.
